Each structure is given as a SMILES string.

For assay [1], the system named is Bifidobacteria. As to the kind of experiment: Growth in the presence of butyrate (data not shown). The assay is classed as cell-based. As to conditions: 10 mM butyrate.
Assay [2] relates to lactic acid bacteria. The assay is described as above. The following applies: 10 mM butyrate. The assay is classed as cell-based.

Take `CCCC(=O)O` [butyrate]: the growth inhibition result in assay [1] and in assay [2] was “not inhibited” throughout.

These data come from patent publication US8241659B2, “Nutrition with lipids and non-digestible saccharides” (N. V. Nutricia, priority 2005, dated 2012).
